# Data taken from US12018265B2, “Nucleic acid encoding n-methylputrescine oxidase and uses thereof” (22nd Century Limited, LLC, priority 2006, dated 2024).
# How the values were obtained:
# [1] = system: MPO; conditions: compared with N-methylated diamines; Hashimoto 1990, Walton and McLauchlan 1990, Boswell 1999; cited from earlier work
# [2] = system: MPO and PMT expression in roots; test: qRT-PCR analysis of MPO and PMT expression in MeJa-treated roots; assay type: in vivo, Nicotiana benthamiana; conditions: MeJa 11 μM in hydroponic solution
# Protocol: Nicotiana benthamiana (Solanaceae) seedlings were grown hydroponically in 0.25× Hoagland's solution supplemented with iron chelate solution and oxygenated using an aquarium bubbler. Roots from three-week old plants were sampled before (t=0) and at 1, 4, and 7 hours after addition of MeJa to a final concentration of 11 μM. Total RNA was isolated from 450 mg each of untreated leaves, untreated roots, and a combined MeJa-treated root sample composed of 150 mg roots each from the 1, 4 and 7 hour time points using a RNeasy midi kit (Qiagen). We constructed three separate subtractive cDNA libraries: NBREL2, with mRNA pooled from MeJa-treated roots as tester and untreated root mRNA as driver; NBLEL3, with mRNA pooled from MeJa-treated roots as tester and leaf mRNA as driver; and NBREL4, with mRNA pooled from MeJa-treated roots as both tester and driver.
# The inducibility of MPO by MeJa application was determined using quantitative RT-PCR (qRT-PCR). The same PCR primers were used as for RT-PCR analysis of expression in different tissues. Total RNA was extracted from hydroponically grown roots immediately before and 1, 4, and 7 hours after addition of MeJa (11 μM) to the hydroponic solution. Hydroponic conditions are detailed in Example 1. […]
# [3] = system: recombinant MPO (N-methylputrescine oxidase); test: Recombinant MPO enzyme assay (Amplex red hydrogen peroxide/peroxidase system); assay type: biochemical, Nicotiana benthamiana
# Protocol: Protein extracts was prepared from the roots of buffer control, TRV-GFP and TRV-MPO (214D11) infected plants. The extraction method described in Hashimoto T. et al. (Plant Physiol. 93: 216-221 (1990)) was used. Briefly, 1 g roots was ground in liquid nitrogen and suspended in 20 ml of extraction buffer containing 100 mM potassium phosphate pH 7.5, 0.25 M sucrose, 5 mM EDTA, 0.3% ascorbate and 10% PVPP. After centrifugation at 500 g for 30 min, the supernatant was further centrifuged at 11,000 g for another 30 minutes. The supernatant was subjected to two rounds of 20% and 40% ammonium sulphate precipitation. The precipitate was resuspended in 1 ml water, followed by dialysis overnight in 2 l of buffer containing 20 mM potassium phosphate pH 7.5, 1 mM DTT and 20% glycerol. The protein concentration was determined by DC protein assay kit (BioRad). […] After incubating the mixture at 30° C. for 30 min, the fluorescence was measured with a fluorescence microplate reader (Victor3 UV multilabel reader, PerkinElmer) using excitation at 530-560 nm and emission at 590 nm.
# The ORF of the N. benthamiana MPO was expressed in E. coli and the recombinant enzyme was purified for biochemical characterization. […] The protein concentration was determined with DC protein assay kit (BioRad) and MPO purity was analyzed with SDS-PAGE electrophoresis (BioRad). […]
smiles,measurement,setting,value
NCCCCCN [Cadaverine],Affinity as substrate for MPO,[1],lower affinity than N-methylated diamines
"CC/C=C\CC1C(=O)CCC1CC(=O)OC (centres unmarked) [MeJa, methyljasmonate]",Increase of MPO expression over pre-induction levels,"[2]; roots before and 1, 4, 7 hours after, actin reference (FIG. 3)",23 fold
same,Change of PMT transcript levels in response to the inducer,"[2]; roots, compared with MPO (FIG. 3)",even more dramatic increase
CNCCCCN [N-methylputrescine],Km,"[3]; 1 μg Talon purified MPO, N-methylputrescine 10 mM to 0.01 mM, 30°, 30 minutes",100 µM
same,Substrate specificity of recombinant MPO,"[3]; 1 mM of N-methylputrescine, putrescine, diaminopropane, cadaverine, spermine and spermidine (FIG. 9)",preferred N-methylputrescine as a substrate
